Publication PMC10361003 (Journal of Enzyme Inhibition and Medicinal Chemistry, 2023)

molecular target: T1, aldose reductase (Homo sapiens, UniProt P15121); experiment: In vitro enzyme inhibitory assay against human aldose reductase; format: biochemical; conditions: AR inhibition, Epalrestat as positive control

| Structure (SMILES) | IC50 [nM] |
| --- | --- |
| O=C(CN1C(=O)S/C(=C\c2ccc([N+](=O)[O-])cc2)C1=O)c1ccc([N+](=O)[O-])cc1 [Compound 5a, (Z)-5-(4-nitrobenzylidene)-3-(2-(4-nitrophenyl)-2-oxoethyl)thiazolidine-2,4-dione] | 220 |
| O=C(CN1C(=O)S/C(=C\c2ccc(Cl)cc2)C1=O)c1ccc([N+](=O)[O-])cc1 [Compound 5b, (Z)-5-(4-chlorobenzylidene)-3-(2-(4-nitrophenyl)-2-oxoethyl)thiazolidine-2,4-dione] | 460 |
| O=C(CN1C(=O)S/C(=C\c2ccc(Br)cc2)C1=O)c1ccc([N+](=O)[O-])cc1 [Compound 5c, (Z)-5-(4-bromobenzylidene)-3-(2-(4-nitrophenyl)-2-oxoethyl)thiazolidine-2,4-dione] | 490 |
| O=C(CN1C(=O)S/C(=C\c2ccc(F)cc2)C1=O)c1ccc([N+](=O)[O-])cc1 [Compound 5d, (Z)-5-(4-fluorobenzylidene)-3-(2-(4-nitrophenyl)-2-oxoethyl)thiazolidine-2,4-dione] | 570 |
| Cc1ccc(/C=C2\SC(=O)N(CC(=O)c3ccc([N+](=O)[O-])cc3)C2=O)cc1 [Compound 5e, (Z)-5-(4-methylbenzylidene)-3-(2-(4-nitrophenyl)-2-oxoethyl)thiazolidine-2,4-dione] | 550 |
| COc1ccc(/C=C2\SC(=O)N(CC(=O)c3ccc([N+](=O)[O-])cc3)C2=O)cc1 [Compound 5f, (Z)-5-(4-methoxybenzylidene)-3-(2-(4-nitrophenyl)-2-oxoethyl)thiazolidine-2,4-dione] | 280 |
| COc1cc(/C=C2\SC(=O)N(CC(=O)c3ccc([N+](=O)[O-])cc3)C2=O)cc(OC)c1OC [Compound 5g, (Z)-3-(2-(4-nitrophenyl)-2-oxoethyl)-5-(3,4,5-trimethoxybenzylidene)thiazolidine-2,4-dione] | 720 |
| O=C(CN1C(=O)S/C(=C\c2cccc([N+](=O)[O-])c2)C1=O)c1ccc([N+](=O)[O-])cc1 [Compound 5h, (Z)-5-(3-nitrobenzylidene)-3-(2-(4-nitrophenyl)-2-oxoethyl)thiazolidine-2,4-dione] | 510 |
| O=C(CN1C(=O)S/C(=C\c2cccc(Br)c2)C1=O)c1ccc([N+](=O)[O-])cc1 [Compound 5k, (Z)-5-(3-bromobenzylidene)-3-(2-(4-nitrophenyl)-2-oxoethyl)thiazolidine-2,4-dione] | 410 |
| O=C1S/C(=C\c2ccc([N+](=O)[O-])cc2)C(=O)N1Cc1nc2ccccc2s1 [Compound 8a, (Z)-3-(benzo[d]thiazol-2-ylmethyl)-5-(4-nitrobenzylidene)thiazolidine-2,4-dione] | 1980 |
| O=C1S/C(=C\c2ccc(Cl)cc2)C(=O)N1Cc1nc2ccccc2s1 [Compound 8b, (Z)-3-(benzo[d]thiazol-2-ylmethyl)-5-(4-chlorobenzylidene)thiazolidine-2,4-dione] | 160 |
| O=C1S/C(=C\c2ccc(Br)cc2)C(=O)N1Cc1nc2ccccc2s1 [Compound 8c, (Z)-3-(benzo[d]thiazol-2-ylmethyl)-5-(4-bromobenzylidene)thiazolidine-2,4-dione] | 210 |
| O=C1S/C(=C\c2ccc(F)cc2)C(=O)N1Cc1nc2ccccc2s1 [Compound 8d, (Z)-3-(benzo[d]thiazol-2-ylmethyl)-5-(4-fluorobenzylidene)thiazolidine-2,4-dione] | 330 |
| Cc1ccc(/C=C2\SC(=O)N(Cc3nc4ccccc4s3)C2=O)cc1 [Compound 8e, (Z)-3-(benzo[d]thiazol-2-ylmethyl)-5-(4-methylbenzylidene)thiazolidine-2,4-dione] | 290 |
| COc1ccc(/C=C2\SC(=O)N(Cc3nc4ccccc4s3)C2=O)cc1 [Compound 8f, (Z)-3-(benzo[d]thiazol-2-ylmethyl)-5-(4-methoxybenzylidene)thiazolidine-2,4-dione] | 940 |
| COc1cc(/C=C2\SC(=O)N(Cc3nc4ccccc4s3)C2=O)cc(OC)c1OC [Compound 8g, (Z)-3-(benzo[d]thiazol-2-ylmethyl)-5-(3,4,5-trimethoxybenzylidene)thiazolidine-2,4-dione] | 270 |
| COc1ccc(/C=C2\SC(=O)N(Cc3nc4ccccc4s3)C2=O)cc1OC [Compound 8h, (Z)-3-(benzo[d]thiazol-2-ylmethyl)-5-(3,4-dimethoxybenzylidene)thiazolidine-2,4-dione] | 450 |

molecular target: T1, aldose reductase; experiment: not given; conditions: at 0.5 IC50

| Structure (SMILES) | effect on Km | effect on Vmax |
| --- | --- | --- |
| O=C1S/C(=C\c2ccc(Cl)cc2)C(=O)N1Cc1nc2ccccc2s1 [Compound 8b, (Z)-3-(benzo[d]thiazol-2-ylmethyl)-5-(4-chlorobenzylidene)thiazolidine-2,4-dione] | slight reduction | significant reduction |

same assay, conditions: at concentrations equal to IC50 and double of IC50

| Structure (SMILES) | effect on Km and Vmax |
| --- | --- |
| O=C1S/C(=C\c2ccc(Cl)cc2)C(=O)N1Cc1nc2ccccc2s1 [Compound 8b, (Z)-3-(benzo[d]thiazol-2-ylmethyl)-5-(4-chlorobenzylidene)thiazolidine-2,4-dione] | decreased significantly |

test system: AR; experiment: not given; conditions: read-out: IC50 (reported AR inhibition); Zopolrestat; cited from earlier work

| Structure (SMILES) | IC50 [nM] |
| --- | --- |
| O=C(O)Cc1nn(Cc2nc3cc(C(F)(F)F)ccc3s2)c(=O)c2ccccc12 [Zopolrestat, 3,4-dihydro-4-oxo-3-[[5-(trifluoromethyl)-2-benzothiazolyl]methyl]-1-phthalazineacetic acid] | 3.1 |
